Test results published in patent publication US20200270310A1, “MAFG AS A POTENTIAL THERAPEUTIC TARGET TO RESTORE CHEMOSENSITIVITY IN PLATINUM-RESISTANT CANCER CELLS” (FUNDACÓIN PARA LA INVESTIGACIÓN BIOMÉDICA DEL HOSPITAL …, priority 2017, published 2020).
Several values for one entry are separate records, joined by “and”; a condition that tells them apart may be missing. Equal values may be shown once.

B1: GCGGATGAAGACTGGTGTCGATGCATGTGTAGTGCATTTCGAGCCGTTCTATTGGTGTGCCCTAAATACGAGCAAC (nucleic acid)
chain: GCGGATGAAGACTGGTGTCGATGCATGTGTAGTGCATTTCGAGCCGTTCTATTGGTGTGCCCTAAATACGAGCAAC
modifications: chemistry not given here
notes: DNA aptamer selected against the MAFG protein by SELEX

How the values were obtained:
A2780-R cells = experiment: Viability to CDDP, resistant index; type: cell-based, human; conditions: versus parental A2780
Description: (§1) Fifteen human cancer cell lines were purchased from ATCC (Manassas, Va.) or ECACC (Sigma-Aldrich, Spain) and cultured as recommended. The CDDP-resistant variants A2780R and OVCAR3R were selected after a final exposure to […] cisplatin, respectively (Farma Ferrer, Spain), as previously described for H23R and H460R variants The additional 11 human cell lines, PC-3, LNCAP, H727, HT29, A549, BT474, LoVo, IMIM-PC-2, SKOV3, SW780 and IMR90, were used for further validations. For viability assays cells were treated with increasing doses of CDDP. The epigenetic reactivation drugs 5Aza-2deoxycytidine (5Aza-dC) and trichostatin A (TSA) (Sigma-Aldrich, Spain) were used at […] and at 300nM respectively.

H23R cells [1] = experiment: Viability to CDDP, resistant index; type: cell-based, human; conditions: versus H23S
Description: as §1

H460R cells = experiment: Viability to CDDP, resistant index; type: cell-based, human; conditions: versus parental H460
Description: as §1

OVCAR3-R cells = experiment: Viability to CDDP, resistant index; type: cell-based, human; conditions: versus parental OVCAR3
Description: as §1

IMIM-PC2 cells = experiment: Viability to CDDP; type: cell-based, human
Description: as §1

LoVo cells = experiment: Viability to CDDP; type: cell-based, human
Description: as §1

MAFG = experiment: Determination of the MAFG amino acids with which the aptamer binds; conditions: aligned with peptides M4 and M5
Description: FIG. 11. Amino acids of MAFG with which apMNK6F binds (see chA and chB). Interaction zones of apMNK6F aligned with peptides M4 and M5
Moreover, we determined the precise amino acids of MAFG with which apMNK6F binds (see chA and chB of FIG. 11). […] More precisely, the interaction occurs with amino acids 57ARG, 60LYS, 61ASN, 62ARG, 63GLY, 64TYR, 65ALA, 66ALA, 67SER, 68CYS, 69ARG, 70VAL, 71LYS, and 75GLN of the epitope of MAFG comprising amino acids 57 to 75 RTLKNRGYAASCRVKRVTQ (amino acids 57 to 75).

MAFG-Myc = target: T1, MAFG-Myc (Homo sapiens, UniProt O15525); experiment: Enzyme-linked oligonucleotide assay (ELONA) of aptamers and aptamer populations; type: binding
T1 construct: Myc (C); DDK (FLAG)
T1 sequence (O15525 whole entry): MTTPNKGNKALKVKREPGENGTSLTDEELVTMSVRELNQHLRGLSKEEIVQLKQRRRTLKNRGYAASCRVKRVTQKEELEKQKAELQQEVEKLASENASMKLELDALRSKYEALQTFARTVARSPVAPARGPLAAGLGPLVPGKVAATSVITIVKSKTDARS
Experimental: FIG. 4. Analysis of the affinity of the aptamers against MAFG. (A) Quantification of aptamer-MAFG complexes by qPCR comparing absence (dot pattern) or presence (filled pattern) of MAFG protein. […] Bars represent the mean±SEM of 2-3 experiments (B) Specificity binding assay of aptamers to MAFG performed by ELONA. MAFG-myc was plated at 50ng/well in 96-well plates followed by incubation with 5′ digoxigenin-labeled aptamers from RND40, SEL3MAFG and SEL6MAFG. The figure represents the mean±SEM of 3 independent experiments. p<0.01. (C) Aptacytochemistry in HEK-293T cells transiently transfected with MAFG-myc. Cells overexpressing MAFG were incubated with 5′ Alexafluor 488-conjugated aptamers from RND40, SEL3MAFG or SEL6MAFG (upper panel) or Myc antibody (lower panel). Confocal microscopy images corresponding to the staining of nuclei with Hoechst (blue), antibodies (red), and aptamers (green) are shown. Arrowhead indicates positive cells. Bar=13 μm. (D) Study of individual aptamers affinity performed by ELONA. Recombinant MAFG was plated at 50 ng/well in 96-well plates followed by incubation with 5′ digoxigenin-labeled individual aptamers apMAGF3F, apMAFG6F and apMAFG11F. The figure represents the mean±SD of 2 independent experiments. (E) Secondary structures of aptamers apMAGF3F, apMAFG6F and apMAFG11F obtained by bioinformatics sequence analysis using the mFold software taking into account the lower free energy (AG).
(ii) Enzyme-linked oligonucleotide assay (ELONA): Aptamers were labeled by PCR using 5′ digoxigenin-labeled F3/5′ digoxigenin-labeled R3 primers (IBA Life Sciences). To assess the enrichment of the selected population and the affinity of the individual aptamers for the target, MAFG-Myc (50 ng) was incubated with the rounds 3, 6 of aptamers or the RND40 library. OD405nm values were determined using a SpectraFluor microplate reader (TECAN, Barcelona, Spain).

H23R cells [2] = experiment: Semiquantitative RT-PCR of MAFG and HMOX1 in aptamer-transfected cells after platinum treatment; type: cell-based, human; conditions: aptamer-transfected H23R after platinum treatment vs H23R
Experimental: For semiquantitative RT-PCR, 500 ng of total RNA isolated from cell lines was used for RT reaction using PrimeScript™ RT Master (Clontech-Takara, USA) and subsequent semiquantitative PCR using Promega PCR Mix (Promega, USA) as previously described. Relative quantification was performed by measuring the intensity of band amplified using ImageJ software. Primers for HMOX1 (F: 5′-[…]-3′; R: 5′-[…]-3′), MAFG (F: 5′-[…]-3′; R: 5′-[…]-3′) and GAPDH (F: 5′-GAGAGACCCTCACTGCTG-3′; R: 5′-[…]-3′) were designed to include the probe from the array in order to assure the correct transcript identification.

Molecule	Resistant-Index (RI) to CDDP (A2780-R cells)	Resistant-Index (RI) to CDDP (H23R cells [1])	Resistant-Index (RI) to CDDP (H460R cells)	Resistant-Index (RI) to CDDP (OVCAR3-R cells)	IC50 of CDDP (IMIM-PC2 cells)	IC50 of CDDP (LoVo cells)	interaction zone of the aptamer on MAFG (MAFG)	affinity against MAFG (MAFG-Myc; Example 1, individual aptamers)	binding capacity to the target (MAFG-Myc; Example 3, individual sequences from SEL6MAFG)	binding signal relative to BSA protein (MAFG-Myc; individual sequences from SEL6MAFG)	HMOX1 expression (H23R cells [2])	MAFG expression (H23R cells [2])
[NH2][Pt]([NH2])([Cl])[Cl] [CDDP, Cisplatin]	3.00	3.35 and > 3	2.50	2.96	over 2 μg/ml	over 2 μg/ml	–	–	–	–	–	–
B1	–	–	–	–	–	–	interaction occurs mainly with peptide M4	high affinity	high binding capacity to the target in the nanomolar range	four times that of the BSA protein	decrease in their expression	decrease in their expression
